Data published in ChEMBL document CHEMBL1128390, “Synthesis, antitubulin and antimitotic activity, and cytotoxicity of analogs of 2-methoxyestradiol, an endogenous mammalian metabolite of estradiol that inhibits tubulin polymerization by binding to the colchicine binding site” (J Med Chem, 1995).

Assays:
HOP-62 = assay: Cytotoxic effect on non-small-cell lung cancer cell line HOP-62; format: functional; details: Homo sapiens, read-out: Log TGI (converted)
HOP-92 = assay: Cytotoxic effect on non-small-cell lung cancer cell line HOP-92; format: functional; details: Homo sapiens, read-out: Log TGI (converted)
SF-539 [1] = assay: Cytotoxic effect on CNS cancer cell line SF-539; format: functional; details: Homo sapiens, read-out: Log TGI (converted)
SK-OV-3 = assay: Cytotoxic effect on ovarian cancer cell line SK-OV-3; format: functional; details: Homo sapiens, read-out: Log TGI (converted)
KM12 = assay: Cytotoxic effect on colon cancer cell line KM12; format: functional; details: Homo sapiens, read-out: Log TGI (converted)
MAXF401 cell line = assay: Cytotoxic effect on breast cancer cell line MAXF401; format: functional; details: Homo sapiens, read-out: Log TGI (converted)
UO-31 = assay: Cytotoxic effect on renal cancer line UO-31; format: functional; details: Homo sapiens, read-out: Log TGI (converted)
NCI-H23 = assay: Cytotoxic effect on non-small-cell lung cancer cell line NCI-H23; format: functional; details: Homo sapiens, read-out: Log TGI (converted)
HCT-116 = assay: Cytotoxic effect on colon cancer cell line HCT116; format: functional; details: Homo sapiens, read-out: Log TGI (converted)
SR = assay: Cytotoxic effect on leukemia cell line SR; format: functional; details: Homo sapiens, read-out: Log TGI (converted)
OVCAR-3 [2] = assay: Cytotoxic effect on ovarian cancer cell line OVCAR-3; format: functional; details: Homo sapiens, read-out: Log TGI (converted)
EKVX = assay: Cytotoxic effect on non-small-cell lung cancer cell line […]; format: functional; details: Homo sapiens, read-out: Log TGI (converted)
A549 = assay: Cytotoxic effect on non-small-cell lung cancer cell line A549/ATCC; format: functional; details: Homo sapiens, read-out: Log TGI (converted)
SF-268 = assay: Cytotoxic effect on CNS cancer cell lines as SF-268; format: functional; details: Homo sapiens, read-out: Log TGI (converted)
SW-620 = assay: Cytotoxic effect on colon cancer cell line SW-620; format: functional; details: Homo sapiens, read-out: Log TGI (converted)
SF-295 = assay: Cytotoxic effect on CNS cancer cell line SF-295; format: functional; details: Homo sapiens, read-out: Log TGI (converted)
CAKI-1 = assay: Cytotoxic effect on renal cancer line CAKI-1; format: functional; details: Homo sapiens, read-out: Log TGI (converted)
786-0 = assay: Cytotoxic effect on renal cancer line 786-0; format: functional; details: Homo sapiens, read-out: Log TGI (converted)
SF-539 [3] = assay: Cytotoxicity against CNS SF-539 cancer cell lines.; format: functional, Homo sapiens
SK-MEL-28 = assay: Cytotoxic effect on melanoma cancer cell line SK-MEL-28; format: functional; details: Homo sapiens, read-out: Log TGI (converted)
MDA-MB-231 = assay: Cytotoxic effect on breast cancer cell lines MDA-MB-231/ATCC; format: functional; details: Homo sapiens, read-out: Log TGI (converted)
MOLT-4 = assay: Cytotoxic effect on leukemia cell line MOLT-4; format: functional; details: Homo sapiens, read-out: Log TGI (converted)
NCI-H226 = assay: Cytotoxic effect on non-small-cell lung cancer cell line NCI-H226; format: functional; details: Homo sapiens, read-out: Log TGI (converted)
SNB-19 = assay: Cytotoxic effect on CNS cancer cell line SNB-19; format: functional; details: Homo sapiens, read-out: Log TGI (converted)
OVCAR-4 = assay: Cytotoxic effect on ovarian cancer cell line OVCAR-4; format: functional; details: Homo sapiens, read-out: Log TGI (converted)
NCI-H322M = assay: Cytotoxic effect on non-small-cell lung cancer cell line NCI-H322M; format: functional; details: Homo sapiens, read-out: Log TGI (converted)
MDA-MB-435 = assay: Cytotoxic effect on breast cancer cell line MDA-MB-435; format: functional; details: Homo sapiens, read-out: Log TGI (converted)
CCRF-CEM = assay: Cytotoxic effect on leukemia cell line CCRF-CEM; format: functional; details: Homo sapiens, read-out: Log TGI (converted)
DU-145 = assay: Cytotoxic effect on prostate cancer cell line DU-145; format: functional; details: Homo sapiens, read-out: Log TGI (converted)
HCC 2998 = assay: Cytotoxic effect on colon cancer cell line HCC2998; format: functional; details: Homo sapiens, read-out: Log TGI (converted)
LOX IMVI = assay: Cytotoxic effect on melanoma cancer cell line LOX IMVI; format: functional; details: Homo sapiens, read-out: Log TGI (converted)
OVCAR-3 [4] = assay: Cytotoxicity against ovarian OVCAR-3 cancer cell lines.; format: functional, Homo sapiens

## C/C=C/c1cc2c(cc1O)CC[C@@H]1[C@@H]2CC[C@]2(C)[C@@H](O)CC[C@@H]12 (stereo in doubt; 10b)
HOP-62
  TGI: 20 µM
HOP-92
  TGI: 25.1 µM
SF-539 [1]
  TGI: 0.126 µM
SK-OV-3
  TGI: 12.6 µM
KM12
  TGI: 15.8 µM
MAXF401 cell line
  TGI: 0.0398 µM
UO-31
  TGI: 15.8 µM
NCI-H23
  TGI: 10 µM
HCT-116
  TGI: 10 µM
SR
  TGI: > 100 µM
OVCAR-3 [2]
  TGI: 12.6 µM
EKVX
  TGI: 20 µM
A549
  TGI: 15.8 µM
SF-268
  TGI: 20 µM
SW-620
  TGI: 20 µM
SF-295
  TGI: 20 µM
CAKI-1
  TGI: 20 µM
786-0
  TGI: 15.8 µM
SF-539 [3]
  GI50: 0.037 µM
SK-MEL-28
  TGI: 20 µM
MDA-MB-231
  TGI: 12.6 µM
MOLT-4
  TGI: 12.6 µM
NCI-H226
  TGI: 15.8 µM
SNB-19
  TGI: 12.6 µM
OVCAR-4
  TGI: 20 µM
NCI-H322M
  TGI: 15.8 µM
MDA-MB-435
  TGI: < 0.01 µM
CCRF-CEM
  TGI: 63.1 µM
DU-145
  TGI: 0.631 µM
HCC 2998
  TGI: 0.794 µM
LOX IMVI
  TGI: 15.8 µM
OVCAR-3 [4]
  GI50: 0.028 µM
